Assay results reported in ChEMBL document CHEMBL1155639, “Synthesis of 16,18-dihydroxycleroda-3,13Z-dien-16,15-olide, (+)-16-hydroxycleroda-3,13Z-dien-16,15-olide, and (-)-hydroxyhalima-5(10),13-dien-16,15-olide from (+)-hardwickiic acid” (2000).

Test system: Mycobacterium tuberculosis
Assay: Antitubercular activity against Mycobacterium tuberculosis at 12.5 ug/mL by TAACF method
Assay type: functional

`CC1=CCC[C@H]2[C@](C)(CCC3=CC(=O)OC3O)[C@@H](C)CC[C@]12C` (stereo partly specified) gave an inhibition at 12.5 µg/mL of 85%.
